Measured values published in patent US20050203189A1, “Remedies for chronic kidney diseases” (priority 2002, published 2005).

Experiments:
[1] = tested on: Brain microsomal Na+/Ca2+ exchanger; assay: Brain microsomal Na+/Ca2+ exchanger, Na-dependent 45Ca uptake; type: biochemical; settings: rat brain microsomes; read-out: Inhibitory activity against Na+/Ca2+ exchange (Na-dependent 45Ca uptake), IC50 value, Brain
Experimental: Method of Measuring for Brain Microsomal Na^+/Ca^2+ Exchanger
Brain microsomes (1.5 mg/mil) obtained from 8-week-old rats were pre-treated with 160 mM NaCl-containing buffer to cause Na loading into membrane vesicles. This suspension was diluted 50-fold with 20 μM ^45CaCl2-containing buffer to induce ^45Ca uptake, followed by dilution with the buffer (0° C.) to stop the reaction. The membrane vesicles were immediately collected on a nitrocellulose filter. Subsequently, ^45Ca trapped inside the membrane vesicles was determined by liquid scintillation counting. The above assay for Na^+/Ca^2+ exchange activity in brain microsomes was performed according to the procedures described in J. Biol. Chem., vol. 257, p. 5111 (1982).

[2] = molecular target: T1, Canine cardiac sarcolemmal vesicle Na+/Ca2+ exchanger (Canis lupus familiaris, UniProt P23685); assay: Canine cardiac sarcolemmal vesicle Na+/Ca2+ exchanger, Na-dependent 45Ca uptake; type: biochemical; settings: canine cardiac sarcolemmal vesicles; read-out: Inhibitory activity against Na+/Ca2+ exchange (Na-dependent 45Ca uptake), IC50 value, Cardiac sarcolemma
T1 construct: Canine cardiac sarcolemmal vesicles (0.5 mg/ml) were prepared by centrifugal fractionation; from tissue; host or cells: canine cardiac sarcolemmal vesicles
Experimental: Method of Measuring for Canine Cardiac Sarcolemmal Vesicle Na^+/Ca^2+ Exchanger
Canine cardiac sarcolemmal vesicles (0.5 mg/ml) were prepared by centrifugal fractionation as described in Methods enzymology, vol. 157, p. 85 (1988) and suspended in Solution A (20 mM MOPS-Tris (pH 7.4), 160 mM NaCl or KCl), followed by incubation at room temperature for about one hour to cause Na or K loading into the vesicles. This suspension was diluted 50-fold with 20 μM ^45CaCl2-containing buffer to induce ^45Ca uptake, followed by dilution with the buffer (0° C.) to stop the reaction. The membrane vesicles were immediately collected on a nitrocellulose filter. Subsequently, ^45Ca trapped inside the membrane vesicles was determined by liquid scintillation counting. The Na^+/Ca^2+ exchange activity was evaluated by subtracting the value obtained for K loading from the value obtained for Na loading. The above assay for Na^+/Ca^2+ exchange activity in canine cardiac sarcolemmal vesicles was performed according to the procedures described in J. Biol. Chem., vol. 257, p. 5111 (1982).

[3] = molecular target: T2, Rat renal cortex-derived BLMVs Na+/Ca2+ exchanger (Rattus norvegicus, UniProt Q01728); assay: Rat renal cortex-derived BLMV Na+/Ca2+ exchange activity, Na-dependent 45Ca uptake; type: biochemical; settings: for IC50: rat renal cortex BLMVs, read-out: Inhibitory activity against Na+/Ca2+ exchange (Na-dependent 45Ca uptake), IC50 value, Renal cortex
T2 construct: BLMVs were prepared from rat renal cortex; from tissue; host or cells: rat renal cortex basolateral membrane vesicles
Experimental: Preparation of Rat Renal Cortex-Derived BLMVs (Basolateral Membrane Vesicles) and Method of Measuring for their Na^+/Ca^2+ Exchange Activity
BLMVs were prepared from rat renal cortex and assayed for Na^+/Ca^2+ exchange activity according to the procedures described in Am. J. Physiol., vol. 266, p. F785 (1994).
After being excised from rats, the kidneys were placed in ice-cold sucrose buffer ([…], 0.1 mM PMSF, 10 mM Tris-HCl (pH 7.6)) and decapsulated. The isolated cortex was then finely minced in the sucrose buffer and homogenized sequentially with a Dounce-type homogenizer and a Polytron-type homogenizer, followed by centrifugation at 2500 g for 15 minutes to collect the supernatant. Centrifugation was repeated at 24000 g for 20 minutes to collect the white fluffy portion of the pellet. After further addition of the sucrose buffer, the collected fraction was homogenized with a Dounce-type homogenizer, supplemented with Percoll and then centrifuged at 30000 g for 35 minutes to collect the middle layer. After addition of buffer (100 mM KCl, 100 mM mannitol, 5 mM HEPES-Tris (pH 7.4)), centrifugation was carried out at 34000 g for 30 minutes to collect the loose white pellet (BLMVs). The pellet was further suspended in the KCl-mannitol buffer and then centrifuged at 34000 g for 30 minutes to collect the precipitate, which was used for activity assay.
(Method of Measuring for Na^+/Ca^2+ Exchanger (Na-Dependent ^45Ca Uptake))
The BLMVs thus prepared were equilibrated at 37° C. for 10 minutes in pre-equilibration buffer (100 mM NaCl, 40 mM KCl, 1 mM MgSO4, 10 mM glucose, 5 mM HEPES-Tris (pH 7.4)) and then centrifuged at 20000 g for 5 minutes to collect the precipitate, which was then resuspended in the pre-equilibration buffer. Centrifugation was repeated to collect the precipitate, followed by resuspension in the pre-equilibration buffer. […] Subsequently, the filter was washed twice with 2 ml stop solution and then the amount of ^45Ca trapped inside the BLMVs was determined by using liquid scintillation method.

ZSF-1 rats = assay: Kidney protective activity in spontaneous diabetic rats (ZSF-1); type: in vivo, rat; settings: for Amount of urinary albumin excretion / Amount of urinary protein excretion: ZSF-1 rats
Experimental: ZSF-1 rats and ZSF-1/lean rats which were control animals (8 weeks old) obtained from The Jackson Laboratory were used for this test. The rats were divided into 5 groups (8 individuals for each group) for the test. • Group I: ZSF-1/lean+solvent orally administered (twice a day) • Group II: ZSF-1+solvent orally administered (twice a day) • Group III: ZSF-1+SEA0400 1 mg/kg orally administered (twice a day) • Group IV: ZSF-1+SEA0400 3 mg/kg orally administered (twice a day) • Group V: ZSF-1+SEA0400 10 mg/kg orally administered (twice a day)
The solvent and SEA0400 were orally administered twice a day (first time at 8:30 to 10:30 and second time at 16:30 to 18:30) for consecutive 8 weeks. Eight weeks after the administration started, each of the rats was placed in a metabolic cage where urine was taken so that the amounts of protein and albumin in urine were measured to observe the effect oil the kidney function. Determination of the amounts of protein and albumin was performed following the description of the above-mentioned references using an autoanalyzer (HITACHI 7060 Automatic Analyzer).

[4] = tested on: Dahl-salt sensitive (Dahl-S) rats; assay: Kidney protective activity in Dahl-salt sensitive rat; type: in vivo; settings: 10 mg/kg orally twice a day, 6 weeks
Experimental: This test was conducted following the method described in J. Cardiovascular Pharmacology, Vol. 23, p. 970 (1994). Specifically, procedures are as follows.
Dahl-salt sensitive (Dahl-S) rats and Dahl-salt resistant (Dahl-R) rats as control animals (male, 7 weeks old) were used for the experiment. The rats were divided into 3 groups (6 individuals for each group) for the test. • Group I: Dahl-R+4% NaCl chow+solvent orally administered (twice a day) • Group II: Dahl-S+4% NaCl chow+solvent orally administered (twice a day) • Group III: Dahl-S+4% NaCl chow+SEA0400 10 mg/kg orally administered (twice a day)
Each animal was fed with a 4% NaCl high-salt-containing chow (whereas normal chow contains 0.6% NaCl) and water adlibitum. The solvent and SEA0400 were orally, administered twice a day (first time at 8:30 to 9:30 and second time at 16:30 to 17:30) for consecutive 6 weeks. In 6 weeks after the administration started, each of the rats was placed in a metabolic cage where urine was taken so that the amounts of protein and albumin in urine were measured to observe the effect on the kidney function. Determination of the amounts of protein and albumin in urine was performed following the method described in Bunseki Kagaku, Vol. 32, pp. E379-E386 (1983) and Hypertension, Vol. 40, No. 6, pp. 834-839 (2002) using an autoanalyzer (HITACHI Automatic Analyzer 7060).

| IC50 [1] [µM] | IC50 [2] [µM] | IC50 [3] [µM] | Inhibitory activity relative to SEA0400, renal cortex-derived Na+/Ca2+ exchange activity ([3]; relative to SEA0400) | Structure (SMILES) | Amount of urinary albumin excretion (ZSF-1 rats; 1 mg/kg orally twice a day, 8 weeks (Group III), solvent group 28±5, lean 1±0.1) [mg/day] | Amount of urinary protein excretion (ZSF-1 rats; 1 mg/kg orally twice a day, 8 weeks (Group III), solvent group 58±9, lean 14±1) [mg/day] | Amount of urinary albumin excretion (ZSF-1 rats; 3 mg/kg orally twice a day, 8 weeks (Group IV), solvent group 28±5) [mg/day] | Amount of urinary protein excretion (ZSF-1 rats; 3 mg/kg orally twice a day, 8 weeks (Group IV), solvent group 58±9) [mg/day] | Amount of urinary albumin excretion (ZSF-1 rats; 10 mg/kg orally twice a day, 8 weeks (Group V), solvent group 28±5, significantly lower) [mg/day] | Amount of urinary protein excretion (ZSF-1 rats; 10 mg/kg orally twice a day, 8 weeks (Group V), solvent group 58±9, significantly lower) [mg/day] | Kidney protective activity (effect on increase in urinary protein and albumin excretion) (ZSF-1 rats; spontaneous diabetic rats (ZSF-1), orally twice a day, 8 weeks) | Kidney protective activity (effect on increase in urinary protein and albumin excretion) [4] | Amount of urinary albumin excretion ([4]; 4% NaCl chow, solvent group 109±14, Dahl-R 2±1) [mg/day] | Amount of urinary protein excretion ([4]; 4% NaCl chow, solvent group 144±11, Dahl-R 23±2) [mg/day] |
| --- | --- | --- | --- | --- | --- | --- | --- | --- | --- | --- | --- | --- | --- | --- |
| 11 | 7 | 6.8 |  | N=C(N)SCCc1ccc(OCc2ccc([N+](=O)[O-])cc2)cc1 [K-BR7943, 2-[2-[4-[nitrobenzyloxy]phenyl]ethyl]isothio-ureamethanesulfonate, reference compound] |  |  |  |  |  |  |  |  |  |  |
|  |  |  | about 0.07 fold | O=[N+]([O-])c1cccnc1Oc1ccc(OCc2ccc(F)cc2)cc1 [SEA0064] |  |  |  |  |  |  |  |  |  |  |
| 0.2 | 0.09 | 0.02 |  | CCOc1ccc(Oc2ccc(OCc3cc(F)ccc3F)cc2)c(N)c1 [SEA0400, 2-[4-[(2,5-difluorophenyl)methoxy]phenoxy]-5-ethoxyaniline] | 20 ± 5 | 40 ± 8 | 17 ± 5 | 37 ± 7 | 9 ± 2 | 29 ± 5 | significantly inhibited the increase in urinary protein and albumin excretion | significantly inhibited the increase in urinary protein and albumin excretion | 58 ± 8 | 91 ± 12 |
